Data reported in patent publication US11369625B2, “Anti-tumor agent, anti-tumor effect enhancer, and anti-tumor kit” (FUJIFILM Corporation, priority 2017, dated 2022).

Key:
[1] = system: human pancreatic cancer cell line Capan-1; assay: Combinational effect test in Capan-1 subcutaneously implanted tumor-bearing model mouse (anti-tumor effect); format: in vivo, BALB/cA Jcl-nu mice; design: key to vs. control: * statistically significant; conditions: for T/C (%): average RTV of treated group / average RTV of control group x 100, Day 33; for GC (%): growth of control, calculated from RTV at Day 33; for RTV (mean ± standard deviation): relative tumor volume, TV at Day 33 / TV at Day 1, tail vein once a week, three times, n=8; for vs. control: statistical significance of RTV vs. control group, Day 33
Experimental: Combinational effect test in Capan-1 subcutaneously implanted tumor-bearing model mouse
Gemcitabine (hereinafter, also referred to as Gem), Abraxane (hereinafter, also referred to as Abx), and methanesulfonate of Compound A were used as test substances.
Gemcitabine was prepared by dissolving gemcitabine hydrochloride (manufactured by Teva Pharmaceutical Industries Limited) in physiological saline. Abraxane was prepared by dissolving Abraxane (manufactured by Celgene Corporation) in physiological saline.
Capan-1 cell, a human pancreatic cancer cell line, was subcutaneously injected into the posterior flank of 5 to 6-week old female BALB/cA Jcl-nu mice. After tumor implantation, the major diameter (mm) and minor diameter (mm) of the tumor were measured, and the tumor volume (TV) was calculated. Mice were assigned to each group so that the average TV of each group was equal, and the day on which this grouping (n=8) was carried out was taken as Day 1.
The test liquid in Abraxane alone group was prepared to be 30 mg/kg/day as the administration dose. In addition, the test liquid in Compound A alone group was prepared to be 480 mg/kg/day. Compound A was administered from the mouse tail vein a total of three times from Day 1 once a week, and Abraxane was similarly administered from the mouse tail vein a total of three times from Day 1 once a week. In the combined administration group, Compound A was administered at 480 mg/kg/day and Abraxane was administered at 30 mg/kg/day.
As a comparative experiment, gemcitabine was used as a control. The test liquid of gemcitabine alone group was prepared to be 240 mg/kg/day. Gemcitabine was administered from the mouse tail vein a total of three times from Day 1 once a week. In the combined administration group, gemcitabine was administered at 240 mg/kg/day and Abraxane was administered at 30 mg/kg/day.
In this test, doses of Compound A and gemcitabine were set using MTD of each drug. Abraxane was used at the maximum dose usable in combination with each drug. […] In this test example, the MTD and the maximum effect dose are almost synonymous.
As an index of anti-tumor effect, TV at Day 33 was measured in each drug administration group. According to the following equation, a relative tumor volume (RTV) with respect to Day 1 and T/C (%) were calculated to evaluate the anti-tumor effect. […] TV (mm^3)=(major diameter×minor diameter^2)/2 RTV=(TV at Day 33)/(TV at Day 1) T/C (%)=[(average RTV value of test liquid administered group)/(average RTV value of control group)]×100
On the combinational effect of the present invention, the results of evaluation using a combination index (CI) which is a quantitative index of the combinational effect are shown. The CI can be calculated by the following equation according to Cancer Research, 2010, Vol. 70, pp. 440 to 446.
That is, in the case where the drugs to be used in combination are drugs 1 and 2, CI=(T/C at the time of combination use)÷100/{[(T/C of drug 1)÷100]×[(T/C of drug 2)÷100]} CI=1: additive effect CI>1: antagonistic effect CI<1: synergistic effect
In addition, on the combinational effect of the present invention, the results of evaluation using a tumor growth inhibitory effect (growth of control (GC)) are shown. For the evaluation method, the same method as in B of FIG. 5 of Molecular Cancer Therapeutics, 2013, Vol. 12, pp. […] was used.
As described in the above document, the GC can be calculated by the following equation. In the case where RTV>1 GC (%)=[(corresponding drug RTV-1)/(control RTV-1)]×100 [1] In the case where RTV≤1 GC (%)=(corresponding drug RTV-1)×100 [2]
Combinational effect was estimated from the drug efficacy with Abraxane and Compound A or gemcitabine alone by the following calculation equation. The estimated combination use GC (%)=[GC (%) of Abraxane×drug alone GC (%)]÷100

tumor = conditions: oral administration to mice; cited from earlier work

Row | Structure (SMILES) | enhancement of anti-tumor effect in combination use ([1]; Compound A 480 mg/kg/day with Abraxane 30 mg/kg/day, nude mice) | T/C (%) [1] | GC (%) [1] | RTV (mean ± standard deviation) [1] | vs. control [1] | anti-tumor activity (tumor)
1 | Nc1ccn([C@@H]2S[C@H](CO)[C@@H](O)[C@@H]2F)c(=O)n1 [Compound A, 1-(2-deoxy-2-fluoro-4-thio-β-D-arabinofuranosyl)cytosine] | significantly enhanced the anti-tumor effect of Abraxane | 32.2% | 9.6% | 1.29 ± 0.59 | * | potent anti-tumor activity
2 | Nc1ccn([C@@H]2O[C@H](CO)[C@@H](O)C2(F)F)c(=O)n1 [Gem, gemcitabine, reference compound] | – | 68.3% | 57.8% | 2.74 ± 0.41 | * | –
